Source: ChEMBL document CHEMBL1158204, “Metabolites from an Antarctic sponge-associated bacterium, Pseudomonas aeruginosa” (1996)
Active and inactive are the calls of the source. The rule behind the calls is not given here.

Key:
Type in all cases: functional
Settings in all cases: for MIC: 48 h
Bacillus cereus = test: Antibacterial activity against Bacillus cereus after 2 days by disk assay
Micrococcus luteus = test: Antibacterial activity against Micrococcus luteus after 2 days by disk assay
Staphylococcus aureus = test: Antibacterial activity against Staphylococcus aureus after 2 days by disk assay

NC(=O)c1cccc2nc3ccccc3nc12
MIC (Bacillus cereus): < 0.5 µg/mL | MIC (Micrococcus luteus): < 5 µg/mL | MIC (Staphylococcus aureus): < 5 µg/mL

CC(C)[C@@H]1NC(=O)[C@@H]2CCCN2C1=O
Activity (Bacillus cereus): inactive | Activity (Micrococcus luteus): inactive | Activity (Staphylococcus aureus): inactive

CC(C)C[C@@H]1NC(=O)[C@@H]2CCCN2C1=O
Activity (Bacillus cereus): inactive | Activity (Micrococcus luteus): inactive | Activity (Staphylococcus aureus): inactive

CSCC[C@@H]1NC(=O)[C@@H]2CCCN2C1=O
Activity (Bacillus cereus): inactive | Activity (Micrococcus luteus): inactive | Activity (Staphylococcus aureus): inactive

CC[C@H](C)[C@@H]1NC(=O)[C@@H]2CCCN2C1=O
Activity (Bacillus cereus): inactive | Activity (Micrococcus luteus): inactive | Activity (Staphylococcus aureus): inactive

O=C(O)c1cccc2nc3ccccc3nc12 [PHENAZINE-1-CARBOXYLIC ACID]
MIC (Bacillus cereus): < 0.5 µg/mL | MIC (Micrococcus luteus): < 5 µg/mL | MIC (Staphylococcus aureus): < 5 µg/mL

O=C1N[C@@H](Cc2ccc(O)cc2)C(=O)N2CCC[C@@H]12
Activity (Bacillus cereus): inactive | Activity (Micrococcus luteus): inactive | Activity (Staphylococcus aureus): inactive

O=C1N[C@@H](Cc2ccccc2)C(=O)N2CCC[C@@H]12
Activity (Bacillus cereus): inactive | Activity (Micrococcus luteus): inactive | Activity (Staphylococcus aureus): inactive
